“And” between values parts separate entries of the source, which are not always exact repeats. Equal entries are not always repeated. Inconclusive results and toxic doses are left out.
System: BDF1 mice, P388 leukemia ip, median survival T/C
Test: NCI In Vivo Anticancer Drug Screen. Data for tumor model P388 Leukemia (intraperitoneal) in B6D2F1 (BDF1) mice
Details: endpoint: median survival time, higher = longer survival
Procedure, shortened: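 Steps: implant the tumour, treat one group with compound and another with vehicle, record survival, then divide treated by control.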

[1] = dose: 50.0 mg/kg/injection, schedule: Q01DX005 (ip), vehicle: saline with Tween-80
[2] = dose: 100.0 mg/kg/injection, schedule: Q01DX005 (ip), vehicle: saline with Tween-80
[3] = dose: 200.0 mg/kg/injection, schedule: Q01DX005 (ip), vehicle: saline with Tween-80
[4] = dose: 100.0 mg/kg/injection, schedule: Q04DX003 (ip), vehicle: Klucel (hydroxypropylcellulose) (HPC)
[5] = dose: 200.0 mg/kg/injection, schedule: Q04DX003 (ip), vehicle: Klucel (hydroxypropylcellulose) (HPC)
[6] = dose: 25.0 mg/kg/injection, schedule: Q04DX003 (ip), vehicle: saline
[7] = dose: 100.0 mg/kg/injection, schedule: Q01DX009 (ip), vehicle: other
[8] = dose: 200.0 mg/kg/injection, schedule: Q01DX009 (ip), vehicle: other
[9] = dose: 50.0 mg/kg/injection, schedule: Q04DX003 (ip), vehicle: water
[10] = dose: 100.0 mg/kg/injection, schedule: Q04DX003 (ip), vehicle: water
[11] = dose: 100.0 mg/kg/injection, schedule: Q01DX009 (ip), vehicle: saline
[12] = dose: 100.0 mg/kg/injection, schedule: Q04DX003 (ip), vehicle: saline with Tween-80
[13] = dose: 200.0 mg/kg/injection, schedule: Q01DX009 (ip), vehicle: saline
[14] = dose: 200.0 mg/kg/injection, schedule: Q04DX003 (ip), vehicle: saline with Tween-80
[15] = dose: 400.0 mg/kg/injection, schedule: Q04DX003 (ip), vehicle: saline with Tween-80

Compound: Cc1ccc(Cc2c(C=O)nc(N)[nH]c2=O)c2ccccc12
- T/C (dose: 12.5 mg/kg/injection, schedule: Q01DX009 (ip), vehicle: saline with Tween-80): 112 % of control
- T/C (dose: 25.0 mg/kg/injection, schedule: Q01DX009 (ip), vehicle: saline with Tween-80): 96 % of control
- T/C (dose: 50.0 mg/kg/injection, schedule: Q01DX009 (ip), vehicle: saline with Tween-80): 102 % of control
- T/C (dose: 50.0 mg/kg/injection, schedule: Q01DX009 (ip), vehicle: suspension in saline): 97 % of control
- T/C (dose: 100.0 mg/kg/injection, schedule: Q01DX009 (ip), vehicle: suspension in saline): 94 % of control
- T/C (dose: 200.0 mg/kg/injection, schedule: Q01DX009 (ip), vehicle: suspension in saline): 106 % of control

Compound: Cc1nc(Cl)c(C#N)c(C)c1Cl
- T/C [1]: 97 % of control
- T/C [2]: 92 % of control
- T/C [3]: 94 % of control

Compound: Cc1c(Cc2ccccc2)[n+](=O)c2ccccc2n1[O-]
- T/C [4]: 100 % of control
- T/C [5]: 105 % of control

Compound: NNc1nncc2ccccc12
- T/C (dose: 6.25 mg/kg/injection, schedule: Q04DX003 (ip), vehicle: saline): 90 % of control
- T/C (dose: 12.5 mg/kg/injection, schedule: Q04DX003 (ip), vehicle: saline): 90 % of control
- T/C (dose: 25.0 mg/kg/injection, schedule: Q01DX009 (ip), vehicle: saline): 109 % of control
- T/C [6]: 113 % of control
- T/C (dose: 50.0 mg/kg/injection, schedule: Q01DX009 (ip), vehicle: saline): 90 % of control
- T/C (dose: 100.0 mg/kg/injection, schedule: Q04DX003 (ip), vehicle: saline): 100 % of control

Compound: Brc1cc(Br)c(I)c(Br)c1
- T/C [7]: 105 % of control
- T/C [8]: 100 % of control
- T/C (dose: 400.0 mg/kg/injection, schedule: Q01DX009 (ip), vehicle: other): 90 % of control

Compound: CC(=O)c1cc(CN(CCCl)CCCl)c(O)c(CN(CCCl)CCCl)c1O
- T/C (dose: 0.05 mg/kg/injection, schedule: Q01DX009 (ip), vehicle: Klucel (hydroxypropylcellulose) (HPC)): 100 % of control
- T/C (dose: 0.1 mg/kg/injection, schedule: Q01DX009 (ip), vehicle: Klucel (hydroxypropylcellulose) (HPC)): 120 % of control
- T/C (dose: 0.2 mg/kg/injection, schedule: Q01DX009 (ip), vehicle: Klucel (hydroxypropylcellulose) (HPC)): 110 % of control
- T/C (dose: 0.4 mg/kg/injection, schedule: Q01DX009 (ip), vehicle: Klucel (hydroxypropylcellulose) (HPC)): 120 % of control
- T/C (dose: 5.5 mg/kg/injection, schedule: Q01DX009 (ip), vehicle: Klucel (hydroxypropylcellulose) (HPC)): 162 % of control
- T/C (dose: 6.25 mg/kg/injection, schedule: Q01DX009 (ip), vehicle: Klucel (hydroxypropylcellulose) (HPC)): 118 % of control
- T/C (dose: 8.0 mg/kg/injection, schedule: Q01DX009 (ip), vehicle: Klucel (hydroxypropylcellulose) (HPC)): 166 % of control
- T/C (dose: 8.3 mg/kg/injection, schedule: Q01DX009 (ip), vehicle: Klucel (hydroxypropylcellulose) (HPC)): 166 % of control
- T/C (dose: 12.0 mg/kg/injection, schedule: Q01DX009 (ip), vehicle: Klucel (hydroxypropylcellulose) (HPC)): 183 % of control
- T/C (dose: 12.5 mg/kg/injection, schedule: Q01DX009 (ip), vehicle: Klucel (hydroxypropylcellulose) (HPC)): 183 % of control and 190 % of control
- T/C (dose: 18.0 mg/kg/injection, schedule: Q01DX009 (ip), vehicle: Klucel (hydroxypropylcellulose) (HPC)): 250 % of control
- T/C (dose: 25.0 mg/kg/injection, schedule: Q01DX009 (ip), vehicle: Klucel (hydroxypropylcellulose) (HPC)): 154 % of control

Compound: CCOC(=O)C(C)Oc1ccc(Cl)cc1 (stereo unspecified)
- T/C (dose: 25.0 mg/kg/injection, schedule: Q04DX003 (ip), vehicle: water): 106 % of control
- T/C [9]: 101 % of control
- T/C [10]: 113 % of control
- T/C (dose: 200.0 mg/kg/injection, schedule: Q04DX003 (ip), vehicle: water): 112 % of control
- T/C (dose: 400.0 mg/kg/injection, schedule: Q04DX003 (ip), vehicle: water): 106 % of control

Compound: CCCC#CCOCC(O)CCl (stereo unspecified)
- T/C [11]: 104 % of control
- T/C [12]: 104 % of control
- T/C [13]: 109 % of control
- T/C [14]: 108 % of control

Compound: CCCCCCCC(=O)NN
- T/C (dose: 3.12 mg/kg/injection, schedule: Q01DX009 (ip), vehicle: other): 96 % of control
- T/C (dose: 6.25 mg/kg/injection, schedule: Q01DX009 (ip), vehicle: other): 98 % of control
- T/C (dose: 12.5 mg/kg/injection, schedule: Q01DX009 (ip), vehicle: other): 99 % of control
- T/C (dose: 25.0 mg/kg/injection, schedule: Q01DX009 (ip), vehicle: other): 117 % of control
- T/C (dose: 50.0 mg/kg/injection, schedule: Q01DX009 (ip), vehicle: other): 117 % of control
- T/C [9]: 91 % of control
- T/C [7]: 92 % of control
- T/C [10]: 124 % of control
- T/C [8]: 97 % of control

Compound: CCOC(=O)C1(C(=O)OCC)C2CC=CCC21 (stereo unspecified)
- T/C [11]: 95 % of control
- T/C [13]: 100 % of control
- T/C (dose: 400.0 mg/kg/injection, schedule: Q01DX009 (ip), vehicle: saline): 100 % of control

Compound: COc1cc(C=NCCN=Cc2cc(OC)c(OC)c(OC)c2)cc(OC)c1OC
- T/C (dose: 12.5 mg/kg/injection, schedule: Q04DX003 (ip), vehicle: saline with Tween-80): 111 % of control
- T/C (dose: 25.0 mg/kg/injection, schedule: Q04DX003 (ip), vehicle: saline with Tween-80): 107 % of control
- T/C (dose: 50.0 mg/kg/injection, schedule: Q04DX003 (ip), vehicle: saline with Tween-80): 92 % of control
- T/C [14]: 95 % of control

Compound: CCCCCC(C1=NC(C)(C)CC(C)O1)c1ccccc1 (stereo unspecified)
- T/C (dose: 50.0 mg/kg/injection, schedule: Q04DX003 (ip), vehicle: saline sonified): 100 % of control
- T/C (dose: 100.0 mg/kg/injection, schedule: Q04DX003 (ip), vehicle: saline sonified): 100 % of control
- T/C (dose: 200.0 mg/kg/injection, schedule: Q04DX003 (ip), vehicle: saline sonified): 100 % of control

Compound: O=C1c2ccccc2S(=O)(=O)N1CC(O)COc1ccc(Cl)cc1 (stereo unspecified)
- T/C [12]: 104 % of control
- T/C [14]: 100 % of control
- T/C [15]: 95 % of control

Compound: C[N+](C)(C)C12CCCCCC1SC2 (stereo unspecified)
- T/C [6]: 106 % of control
- T/C (dose: 50.0 mg/kg/injection, schedule: Q04DX003 (ip), vehicle: saline): 101 % of control

Compound: CC(C)(C)OC(=O)NC(CC(Cc1ccccc1)C(N)=O)C(=O)N1CCCC1C(=O)OCc1ccccc1 (stereo unspecified)
- T/C [1]: 102 % of control
- T/C [2]: 95 % of control
- T/C [3]: 98 % of control

Compound: c1ccc(/C(=N\Nc2nc3ccccc3s2)c2ccncc2)cc1
- T/C (dose: 100.0 mg/kg/injection, schedule: Q01DX009 (ip), vehicle: Klucel (hydroxypropylcellulose) (HPC)): 104 % of control
- T/C [4]: 100 % of control
- T/C (dose: 200.0 mg/kg/injection, schedule: Q01DX009 (ip), vehicle: Klucel (hydroxypropylcellulose) (HPC)): 95 % of control
- T/C [5]: 105 % of control
- T/C (dose: 400.0 mg/kg/injection, schedule: Q01DX009 (ip), vehicle: Klucel (hydroxypropylcellulose) (HPC)): 100 % of control
- T/C (dose: 400.0 mg/kg/injection, schedule: Q04DX003 (ip), vehicle: Klucel (hydroxypropylcellulose) (HPC)): 105 % of control

Compound: O=C/C(Cl)=C(/Cl)C(=O)O
- T/C (dose: 6.25 mg/kg/injection, schedule: Q04DX002 (ip), vehicle: saline with Tween-80): 110 % of control
- T/C (dose: 12.5 mg/kg/injection, schedule: Q04DX002 (ip), vehicle: saline with Tween-80): 108 % of control
- T/C (dose: 25.0 mg/kg/injection, schedule: Q04DX002 (ip), vehicle: saline with Tween-80): 103 % of control

Compound: C/C=C/c1ccc2ccc[n+](C)c2c1O
- T/C (dose: 22.0 mg/kg/injection, schedule: Q04DX003 (ip), vehicle: saline sonified): 100 % of control
- T/C (dose: 25.0 mg/kg/injection, schedule: Q04DX003 (ip), vehicle: saline sonified): 110 % of control
- T/C (dose: 33.0 mg/kg/injection, schedule: Q04DX003 (ip), vehicle: saline sonified): 113 % of control
- T/C (dose: 75.0 mg/kg/injection, schedule: Q04DX003 (ip), vehicle: saline sonified): 118 % of control

Compound: CCCCC(=O)NC(=O)c1ccccc1
- T/C (dose: 100.0 mg/kg/injection, schedule: Q01DX009 (ip), vehicle: saline with Tween-80): 104 % of control
- T/C [12]: 108 % of control
- T/C (dose: 200.0 mg/kg/injection, schedule: Q01DX009 (ip), vehicle: saline with Tween-80): 104 % of control
- T/C [14]: 104 % of control
- T/C [15]: 100 % of control

Source: PubChem BioAssay AID328 (DTP/NCI, 2004)
